Laboratory results as given in US20120316065A1, “SURFACTANT BLENDS FOR AUXIN ACTIVITY HERBICIDES” (AKZO NOBEL CHEMICALS INTERNATIONAL B.V., priority 2010, published 2012).

Tested on: alfalfa (Medicago sativa)
Assay: Greenhouse herbicidal efficacy of 2,4-D amine tank-mixed with adjuvants, post-emergence spray
Format: in vivo
Details: 2,4-D DMA 0.125 lb/A, adjuvant 0.25% wt (0 for None), scale 0% no damage to 100% complete damage
Description: The surfactant blends described in Table 1 were applied by the tank mix method together with 2,4-D amine salt (465 g/l). The application rate per ha was 0.1250 lb 2,4-D amine salt ai/A and 0.25% of surfactant blends according to the invention or 0.25% comparative adjuvant Activator 90 (alkylphenol ethoxylate, alcohol ethoxylate and tall oil fatty acid, (Loveland). The herbicidal effect was assessed in a greenhouse environment after 1, 2, 3, and 4 weeks. The test plant used was alfalfa (Medicago sativa).
The plants were sown directly to the pot. When the active ingredient was applied, the plants were 20-30 cm in height. The test containers used were plastic pots containing potting mixture. The solutions were applied by the tank mix method by spray application post-emergence in an automated spray cabinet with a water application rate of 200 liters per hectare. Evaluation was carried out using a scale of from 0% to 100%. 0% means no damage, 100% means complete damage. The results of the assessment are compiled in tables 2 and which follow.

**Q.** Which “Alfalfa (1WAT) % control” value (1 week after treatment) does the source give for `O=C(O)COc1ccc(Cl)cc1Cl` [2,4-D DMA, 2-(2,4-dichlorophenoxy) acetic acid] here?
**A.** 10.0%

**Q.** What about the “Alfalfa (2WAT) % control” value (2 weeks after treatment) of the same compound?
**A.** 20.0%

**Q.** What about the “Alfalfa (3WAT) % control” value (3 weeks after treatment) of the same compound?
**A.** 20.0%

**Q.** And the “Alfalfa (4WAT) % control” value (4 weeks after treatment)?
**A.** 37.5%
